Assay results as given in US12458660B2, “Methods of attenuating an immune response by inhibition of BFL1” (CHILDREN'S HOSPITAL MEDICAL CENTER, priority 2018, dated 2025).
pIC50: −log10 of the molar value. Read-outs that look alike come from different tables or passages of the source. Each block holds one compound with its values, some of them ahead of it.

Experiments:
[1] = tested on: primary splenocyte cells; experiment: In vitro apoptosis assay in activated primary splenocyte cells (trypan blue); type: cell-based, mice; details: WT and Bax/Bak-/- splenocytes, +/- polybrene
Procedure: An in vitro apoptosis assay utilizing primary splenocyte cells was used as a model system. In this system, compounds were added to wild-type primary splenocyte cells from mice that had been cultured and activated over four days. […] Mice deficient in Bax/Bak are unable to undergo intrinsic apoptosis due to the lack of the executioners in the pathway. […] Polybrene™ (hexadimethrine bromide) is a transfection reagent used to assist negatively-charged DNA molecules in traversal of the plasma membrane. Polybrene was included here to test whether it would improve the activity of negatively charged compounds.
Single-cell suspensions from spleen were generated by maceration through a 100 μm nylon mesh followed by LympholyteM ficoll gradient separation (Cedarlane Labs, Burlington, NC). Purified cells were then cultured on anti-CD3 coated (3 μg/mL, coated overnight, Biolegend, San Diego, CA) six-well plates in the presence of soluble anti-CD28 (2 μg/mL, Bio X Cell, West Lebanon, NH) and IL-2 (10 ng/mL, R&D Systems, Inc., Minneapolis, MN) in RPMI media (Life Technologies, Carlsbad, CA) for 24 hours at 37° C. Cells were then washed and cultured again in IL-2 (10 ng/mL) for 24 hours at 37° C. […]

[2] = biological target: T1, BCL2A1 (A1) - NOXA binding (Mus musculus, UniProt Q07440, C113S/P104K); experiment: Competition fluorescence polarization assay, displacement of FITC-labeled mNOXA peptide from A1; details: for additivity for inhibition of A1-Noxa binding, checkerboard assay: NSC-97318 (P2) with NSC-45195 (P4), wide range of concentrations; for inhibition of NOXA binding in combination: with NSC-15508
T1 construct: A1 residues 1-152 (P104K, C113S) were expressed in the BL21 strain of Escherichia coli; hexa-His-MBP (cleaved yes); made in house; host or cells: Escherichia coli BL21
T1 sequence (Q07440 1-152 P104K/C113S): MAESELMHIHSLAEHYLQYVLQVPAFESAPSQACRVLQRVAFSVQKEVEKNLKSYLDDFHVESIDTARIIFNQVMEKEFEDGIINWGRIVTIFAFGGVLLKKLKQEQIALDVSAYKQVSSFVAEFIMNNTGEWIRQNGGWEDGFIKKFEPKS
Procedure: Representative compounds were additionally tested for inhibition of BH3 binding through competition-based fluorescence polarization (FP) assays. These assays were carried out using fluorescently labeled NOXA peptide which binds within the BH3-binding groove. The FP assay measures the tumbling rate of the labeled NOXA peptide. When NOXA is bound to A1, its rate of tumbling is low (and FP is high), whereas an effective inhibitor compound will displace NOXA, causing a fast rate of tumbling (and low FP value). Initially, a single high-dose experiment was performed with each compound using 100 μM of compound with BCL2A1 and FITC-NOXA, to observe the relative inhibition of the A1-NOXA interaction (FIG. 17B).
These compounds and any that were three standard deviations or more above the thermal shift controls in the DSF assays, along with those that were initially derived from early compounds with reasonable IC50 values, were tested in a dose-response experiment. To this end, 30 putative P2 inhibitors and 44 putative P4 inhibitors had their IC50 values determined. Of the dose responses, there was a surprising enrichment of putative P4 inhibitors among those that had IC50 values less than 50 μM. […] The following linear equation was used in the calculations (Tallarida et al., 2011),
Compounds were additionally tested for specificity of binding by displacement of FITC-labeled mouse NOXA (mNoxa; Peptide 2.0) peptide via fluorescence polarization assay (FP). FP assays were performed in two steps: single-point high-concentration compounds and dose response of fluorescence polarization hits. A1 was added at 3 μM to 100 μM of each compound in 20 mM Tris pH 7, 500 mM NaCl, 0.005% Tween-20 buffer. After addition of 375 nM labeled mNOXA, 96-well plates were incubated overnight at 20° C. in the dark to achieve equilibrium before fluorescence polarization was measured with a Biotek Synergy H2. Autofluorescent compounds and fluorescent quenching compounds were corrected via ratiometric correction as described by Shapiro et al., 2009.
Dose response curves were measured by adding 3 μM A1 to a serial two-fold dilution series of each compound ranging from 400 μM to 781 nM in 20 mM Tris pH 7, 500 mM NaCl, 0.005% Tween-20 buffer. Some compounds were further tested to assess the accuracy of these two-fold dilutions with serial 1.33-fold dilutions. A1, compounds, buffer and lastly, 375 nM FITC-labeled mNOXA were added to each well and incubated in the dark at 20° C. overnight to achieve equilibrium, followed by measurement of polarization. All dose responses were performed in triplicate.

[3] = Anakinra (rhIL-1ra) pharmacokinetics in pregnant Rhesus macaques, human IL-1ra ELISA; type: in vivo, Rhesus macaques (Macaca mulatta)
Procedure: Recombinant human IL-1 receptor antagonist (“Anakinra” or “rhIL 1ra”) was injected into the amniotic fluid (“AF”) and subcutaneously in the dams (FIG. 3A). […] The low (0.2%) diffusion of Anakinra from maternal blood to amniotic fluid 2 h after maternal subcutaneous (SC) before the AF Anakinra dosing is notable. In addition, a slower clearance of Anakinra from the AF compared to maternal plasma is observed.
(§1) All animal procedures were approved by the Institutional Animal Care and Use Committee at the University of California, Davis. Normally cycling, adult female rhesus macaques (Macaca mulatta) (n=43) were time mated. At ˜130 d of gestation (˜80% of term gestation), the pregnant rhesus received either 1 ml saline solution (n=16) or 1 mg LPS (Sigma-Aldrich, St. Louis, MO) in 1 ml saline solution by ultrasound-guided IA injection. Dams were surgically delivered 16 h (n=13) or 48 h (n=8) later. Multiparous macaques and their fetuses were similar in demographics (Table 4). After delivery, fetuses were euthanized with pentobarbital, and fetal tissues were collected. There were no spontaneous deaths or preterm labor in the animals. IL-1 signaling was blocked by recombinant human IL-1R antagonist (rhIL-1RA; Anakinra Sobi, Stockholm, Sweden) given to the pregnant monkey IA (50 mg) and subcutaneous (100 mg) 1 and 3 h before LPS, as previously described (Rueda et al., 2016; FIG. 3).
Cytokine/chemokine concentrations in AF, fetal, and maternal plasma were determined by Luminex using non-human primate multiplex kits (Millipore). Lipids were extracted from the AF using methanol to measure Prostaglandins PGE2 (Oxford Biomedical Research, Oxford, MI) and PGF2a (Cayman Chemical, Ann Arbor, MI) concentrations. Anakinra (rhIL1ra) levels in AF, fetal, and maternal plasma were determined by human IL1ra/IL-1F3 Quantikine ELISA kit (R&D System, Minneapolis, […]). This kit has low cross-reactivity to Rhesus IL-1ra.

[4] = tested on: IA LPS-induced chorioamnionitis (IL-1 signaling); experiment: LPS-induced chorioamnionitis Rhesus monkey model with IL-1R blockade; type: in vivo, Rhesus macaques (Macaca mulatta)
Description: We utilized the LPS-induced chorioamnionitis Rhesus monkey model system to study the pathogenesis of IUI, and particularly the role of IL-1 signaling in chorioamnionitis. A human recombinant IL-1 receptor antagonist (referred to herein as “hIL-lra” or by its generic name, “anakinra”) which inhibits both IL-1β and IL-lα signaling was used to experimentally block IL-1 signaling.
as §1
Both Rhesus and human purified decidua cell suspensions were prepared as previously described (Presicce et al., 2015). Briefly, extra-placental membranes were dissected away from the placenta. Decidua cells were scraped from the amnion-chorion. Amnion was then separated from chorion and flash-frozen for protein and RNA studies. Decidua tissue was washed, and digested with Dispase II (Life Technologies, Grand Island, NY) plus collagenase A (Roche, Indianapolis, IN) for 30 min followed by DNase I (Roche) treatment for another 30 min. Cell suspensions were filtered subjected to Red blood cell lysis and prepared for flow cytometry. Viability was >90% by trypan blue exclusion test.
Commercially available monoclonal antibodies (mAbs) were used for multiparameter flow cytometry (LSR Fortessa 2, BD Biosciences, San Diego, CA) and immunophenotyping was done on fresh chorio-decidua cell suspensions, except for T-cell phenotyping, which was done on cultured cells since cell isolation procedure down-regulates CD4/8 expression. Chorio-decidua cell TNFα expression was measured by flow cytometry with anti-TNF Ab (Cytofix/Cytoperm; BD Bioscience). To measure cytokine expression induced by in vivo exposures, flow cytometry was done on cells immediately after isolation without any stimulation and/or intracellular blockers. For all protocols, cells were treated with […] human immunoglobulin G (IgG) to block Fc receptors, stained for surface markers for 30 min at 4° C. in PBS, washed, and fixed in fixative stabilizing buffer (BD Bioscience). All antibodies were titrated for optimal detection of positive populations and mean fluorescence intensity. At least 500,000 events were recorded for each sample. Doublets were excluded based on forward scatter properties, and dead cells were excluded using LIVE/DEAD Fixable Aqua dead cell stain (Life Technologies). Unstained and negative biological population were used to determine positive staining for each marker. Data were analyzed using FlowJo version 9.5.2 software (TreeStar Inc., Ashland, OR).
Immunofluorescence was performed as previously described (Presicce et al., 2015). Briefly, paraffin embedded Rhesus fetal membrane sections were sectioned, subjected to antigen-retrieval by microwave boiling in citrate buffer followed by incubation with either anti-human CXCL8 (product G265-8; 1:25 dilution; BD Biosciences), or BCL2A1 (product b450; 1:50 dilution; LSBio, Seattle, WA), in 10% normal horse serum/0.2% Tween-20 at 4° C. overnight. […]

[5] = tested on: chorio-decidua neutrophils; experiment: Chorio-decidua neutrophil survival in culture (Annexin V-/7aad- by flow cytometry); type: cell-based, Rhesus
Procedure: Importantly, Bcl2A1 was specifically expressed by CD neutrophils, and rhIL1ra decreased BCL2A1+ neutrophils (FIG. 9B). Neutrophil expression of Bcl2A1 could be constitutive or induced. Since control CAD tissue have very few neutrophils, we compared expression of Bcl2A1 and other important mediators of apoptosis in CD neutrophils vs. blood neutrophils from the same IA LPS-exposed animals.
Neutrophils were cultured overnight (16 h) at 37° C., in 5% CO2 in DMEM:F12 containing 10% fetal bovine serum, 100 IU/ml penicillin, 100 IU/ml streptomycin, and 2 mmol/L glutamine, in 24-well plate ([…] were stained with a cocktail of Abs as above for immunophenotyping and analyzed by flow cytometry within 30 minutes and cell survival was indicated as percentage of Annexin V^−/7aad^− cells (BD Bioscience).
The chosen doses were optimum based on dose response curves that were generated using blood neutrophils. ABT737 concentrations≥1 μM were toxic to the cells (not shown).

inhibition of Noxa binding in FP assays [2]: strong inhibition
additivity for inhibition of A1-Noxa binding, checkerboard assay [2]: low level additivity
Compound: Cc1ccc(NC(=O)c2cc3ccccc3c(/N=N/c3cc(S(=O)(=O)O)ccc3O)c2O)c(C)c1 [Compound 1.001]
effect on cell survival [1]: some effect

additivity for inhibition of A1-Noxa binding, checkerboard assay [2]: low level additivity
inhibition of NOXA binding in combination [2]: cooperative inhibition
Compound: Cc1cc(O)ccc1/N=N/c1ccc2cc(S(=O)(=O)O)cc(S(=O)(=O)O)c2c1 [Compound 1.003]

pIC50 ([2]; P4 inhibitor 79711 in combination with P2 inhibitor 97318, read-out: IC50 upon P2 and P4 ligand binding): 5.20
pIC50 ([2]; compound alone, inhibition of A1-NOXA binding, read-out: IC50): 4.77
Compound: Cc1cc(N)ccc1/N=N/c1ccc(/N=N/c2ccc3cc(S(=O)(=O)O)cc(S(=O)(=O)O)c3c2)c(C)c1 [Compound 1.002]

Further lines, the compound ahead of its results:

Compound: rhIL1ra: human recombinant IL-1 receptor antagonist which inhibits both IL-1β and IL-1α signaling
diffusion from maternal blood to amniotic fluid ([3]; 2 h after maternal subcutaneous dose, before AF dosing): 0.2%
transfer to fetal plasma ([3]; 19 h level, trans-placental transfer): substantial transfer
elimination in the AF compared to maternal blood ([3]; amniotic fluid vs maternal blood): slower
concentrations in AF and maternal blood ([3]; both compartments): therapeutic concentrations
LPS induced amniotic fluid concentration of PGE2 ([4]; ELISA of lipid extract): decreased
LPS-induced pIRAK1 in the amnion ([4]; IA LPS 16 h, immunoblot): decreased
expression of CSF3 in the amnion ([4]; IA LPS 16 h, mRNA): decreased
expression of CXCL8 in the amnion ([4]; IA LPS 16 h, mRNA): decreased
expression of IL6 in the amnion ([4]; IA LPS 16 h, mRNA): decreased
number (counts) of chorio-decidua neutrophils ([4]; IA LPS, FIG. 5B): to near controls levels
reduction of chorio-decidua neutrophil numbers ([4]; IA LPS, blocking IL-1R): ~90%
overall CD leukocyte counts ([4]; IA LPS, data not shown): decreased
CD16 expression in CD neutrophils ([4]; IA LPS, flow cytometry): to near control levels
CD63 expression in CD neutrophils ([4]; IA LPS, flow cytometry): to near control levels
chorio-decidua B-cell numbers ([4]; IA LPS, flow cytometry): to control levels
frequency of TNFα+ CD neutrophils ([4]; IA LPS, flow cytometry): reversed
neutrophil accumulation in the CD ([4]; IA LPS, flow cytometry): reversed
CAD expression of Bcl2A1 ([4]; LPS-exposed animals, quantitative PCR): reversed
BCL2A1+ neutrophils ([4]; chorio-decidua interface, cell count/HPF): decreased
IA LPS induced CD neutrophils expressing CXCL8 ([4]; immuno-histology): decreased
LPS induced amniotic fluid concentration of CXCL8 ([4]; multiplex ELISA): decreased
LPS induced amniotic fluid concentration of IL6 ([4]; multiplex ELISA): decreased
LPS induced amniotic fluid concentration of MCP1 ([4]; multiplex ELISA): decreased

Compound: CN(C)CC[C@H](CSc1ccccc1)Nc1ccc(S(=O)(=O)NC(=O)c2ccc(N3CCN(Cc4ccccc4-c4ccc(Cl)cc4)CC3)cc2)cc1[N+](=O)[O-] [ABT-737]
frequency of chorio-decidua Annexin V-/7aad- (non-apoptotic) neutrophils ([5]; 0.1 µM, cultured 16 hr): did not show any significant effect
concentrations toxic to the cells ([5]; dose response curves generated using blood neutrophils, not shown): ≥ 1000 nM

Compound: Cc1cc(/N=N/c2ccc(/N=N/c3c(O)c(S(=O)(=O)O)cc4cc(S(=O)(=O)O)ccc34)cc2C)ccc1/N=N/c1ccc2cc(S(=O)(=O)O)cc(S(=O)(=O)O)c2c1 [Compound 1.004]
increase in inhibition relative to NSC-45195 ([2]; SAR comparison): roughly a two-fold increase in inhibition
inhibition of NOXA binding in combination [2]: cooperative inhibition
